In brackets after ≈: the same amount, converted by molar mass. A value given as a limit tells only on which side of the number the result lay.

Data set [1] addresses Cyclin-dependent kinase 8 (Homo sapiens, UniProt P49336). Kind of data set: Inhibition of CDK8 in human SW480 cells assessed as decrease in STAT1 phosphorylation at Ser727 after 2 hrs by Western blot method. Background: Immunoblotting shows a protein as a band on a membrane.
Data set [2] can be described thus: Intrinsic clearance in human liver microsomes at 1 umol/l after 15 to 30 mins in presence of NADPH by LC-MS/MS analysis. It is filed as ADME, microsome. Particulars: read-out: CLH. In general terms: Microsomes from liver hold many membrane-bound enzymes, among them those of drug oxidation.
For data set [3], the target named is Cyclin-C/Cyclin-dependent kinase 19 (Homo sapiens, UniProt Q9BWU1). The data set can be described thus: Inhibition of kinase tracer-236 binding to GST-tagged CDK19/CyclinC (unknown origin) after 60 mins by TR-FRET assay. It counts as protein-complex assay. (Time-resolved FRET reads energy transfer from a long-lived donor to a nearby acceptor.)
Data set [4] addresses T1, CDK8/Cyclin C (Homo sapiens, UniProt P49336). The data set can be described thus: Inhibition of kinase tracer-236 binding to GST-tagged CDK8/CyclinC (unknown origin) after 60 mins by TR-FRET assay. It is filed as protein-complex assay.
Data set [5] in a line: Aqueous solubility of the compound in DMSO at pH 6.8 by HPLC method. It is filed as physicochemical.
For data set [6], the target named is T1, CDK8/Cyclin C. The data set can be described thus: Inhibition of full length recombinant human His-tagged CDK8/Cyclin C expressed in baculovirus expression system using Ulight-GS peptide as substrate measured after 30 mins by TR-FRET based LANCE assay.

Chain of Cyclin-C/Cyclin-dependent kinase 19 (Q9BWU1 whole entry): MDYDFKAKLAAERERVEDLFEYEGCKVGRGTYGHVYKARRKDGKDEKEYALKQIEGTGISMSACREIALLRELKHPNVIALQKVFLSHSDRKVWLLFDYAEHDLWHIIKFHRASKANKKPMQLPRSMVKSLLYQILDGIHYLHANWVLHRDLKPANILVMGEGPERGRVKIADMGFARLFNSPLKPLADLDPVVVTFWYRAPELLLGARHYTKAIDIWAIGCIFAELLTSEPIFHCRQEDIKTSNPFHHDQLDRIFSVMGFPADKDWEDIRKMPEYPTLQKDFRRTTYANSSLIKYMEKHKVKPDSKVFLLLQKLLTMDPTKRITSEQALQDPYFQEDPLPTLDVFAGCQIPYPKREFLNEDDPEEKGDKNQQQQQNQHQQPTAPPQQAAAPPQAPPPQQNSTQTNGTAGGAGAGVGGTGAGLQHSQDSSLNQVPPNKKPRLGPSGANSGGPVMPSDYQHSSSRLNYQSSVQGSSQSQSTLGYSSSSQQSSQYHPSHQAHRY
Chain of Cyclin-C/Cyclin-dependent kinase 19 (P24863 whole entry, further chain): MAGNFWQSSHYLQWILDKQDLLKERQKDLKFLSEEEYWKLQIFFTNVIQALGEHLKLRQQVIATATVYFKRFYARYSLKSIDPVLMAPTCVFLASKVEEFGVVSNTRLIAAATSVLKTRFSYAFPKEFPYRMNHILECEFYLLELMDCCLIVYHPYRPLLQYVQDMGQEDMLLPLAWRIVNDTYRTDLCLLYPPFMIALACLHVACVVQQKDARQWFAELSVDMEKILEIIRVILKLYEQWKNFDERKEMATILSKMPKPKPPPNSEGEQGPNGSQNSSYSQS
T1 sequence (P49336 whole entry): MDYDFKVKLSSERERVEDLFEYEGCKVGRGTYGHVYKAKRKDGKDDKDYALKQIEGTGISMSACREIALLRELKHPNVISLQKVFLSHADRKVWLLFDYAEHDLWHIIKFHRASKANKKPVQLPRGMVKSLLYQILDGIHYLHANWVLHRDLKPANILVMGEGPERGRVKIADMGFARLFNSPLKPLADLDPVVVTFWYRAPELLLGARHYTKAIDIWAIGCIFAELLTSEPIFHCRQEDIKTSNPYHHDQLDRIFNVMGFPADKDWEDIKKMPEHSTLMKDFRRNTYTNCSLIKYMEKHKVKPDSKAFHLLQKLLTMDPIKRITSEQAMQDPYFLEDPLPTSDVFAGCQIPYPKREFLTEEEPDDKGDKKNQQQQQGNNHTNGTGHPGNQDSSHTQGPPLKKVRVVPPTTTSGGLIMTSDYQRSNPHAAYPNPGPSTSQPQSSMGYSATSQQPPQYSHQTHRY
T1 sequence (P24863 whole entry, further chain): as the sequence (P24863 whole entry, further chain) above
Chain of Cyclin-dependent kinase 8 (P49336 whole entry): as the sequence (P49336 whole entry) above

Turning to `NC(=O)c1sc(Oc2ccccn2)c2c1CCc1cnsc1-2`, in data set [1], the EC50 is 66 nM. The microsomal CLint at 1 µM in data set [2] was found to be 101 µL/min/mg. Moreover, the IC50 in data set [3] is 25 nM; at CDK8/Cyclin C [4], 11 nM.

In turn, `CN(C)C(=O)c1ccc(Oc2sc(C(N)=O)c3c2-c2sncc2CC3)cn1` returned a solubility in data set [5] of 65 µg/mL (≈ 162 µM). Moreover, the EC50 in data set [1] stood at 21 nM. Besides, the microsomal CLint at 1 µM in data set [2] is 36 µL/min/mg. Further, the IC50 in data set [3] is 21 nM; at CDK8/Cyclin C [4] it was 23 nM.

For `CSc1sc(C(=O)Nc2ccccc2)c2c1-c1sncc1CC2`, the EC50 in data set [1] was more than 10000 nM. For the same compound, the IC50 in data set [3] turned out to be 700 nM; at CDK8/Cyclin C [4], 540 nM.

`COc1sc(C(N)=O)c2c1-c1sncc1CC2`: the EC50 in data set [1] turned out to be 9.1 nM. Also, the IC50 in data set [3] was 2.8 nM; on CDK8/Cyclin C [4] it was 2.3 nM.

Regarding `OC[C@H](Nc1cncc(-c2ccc(O)c(Cl)c2)n1)c1ccccc1`, at CDK8/Cyclin C [6], the half-inhibitory concentration (IC50) was 0.2 nM.

Take `CSc1sc(C(N)=O)c2c1-c1[nH]ncc1CC2`: the half-maximal effective concentration (EC50) in data set [1] amounted to 1300 nM. Also, the IC50 is 3100 nM in data set [3] and 1700 nM at CDK8/Cyclin C [4].

In the case of `CSc1sc(C(=O)Nc2ccon2)c2c1-c1sncc1CC2`, the EC50 in data set [1] is 890 nM. Further, the half-maximal inhibitory concentration (IC50) in data set [3] worked out at 15 nM; at CDK8/Cyclin C [4], 12 nM.

For the compound `Cc1cncc(Oc2sc(C(N)=O)c3c2-c2sncc2CC3)c1`, the concentration giving a half-maximal response (EC50) in data set [1] stood at 28 nM. Further, in data set [2], the microsomal CLint at 1 µM worked out at 188 µL/min/mg. Besides, the half-inhibitory concentration (IC50) in data set [3] worked out at 9.2 nM; on CDK8/Cyclin C [4], 5.1 nM.

In the case of `CSc1sc(C(=O)Nc2ccsn2)c2c1-c1sncc1CC2`, the concentration giving a half-maximal response (EC50) in data set [1] was 620 nM. The IC50 in data set [3] amounted to 93 nM; at CDK8/Cyclin C [4], 66 nM.

Consider `CSc1sc(C(N)=O)c2c1-c1oncc1CC2`, for which the EC50 in data set [1] worked out at 200 nM. Moreover, the IC50 is 71 nM in data set [3] and 45 nM on CDK8/Cyclin C [4].

Turning to `CSc1sc(C(N)=O)c2c1-c1c(cnn1C)CC2`, the EC50 in data set [1] was found to be 25 nM. The half-inhibitory concentration (IC50) in data set [3] was 19 nM; on CDK8/Cyclin C [4] it was 18 nM.

As to `NC(=O)c1sc(Oc2ccccc2)c2c1CCc1cnsc1-2`, in data set [1], the EC50 is 0.77 nM. Besides, the microsomal CLint at 1 µM in data set [2] was found to be 193 µL/min/mg. For the same compound, the IC50 was 0.55 nM in data set [3] and 0.34 nM at CDK8/Cyclin C [4].

Regarding `CNC(=O)c1sc(SC)c2c1CCc1cnsc1-2`, the EC50 in data set [1] stood at 140 nM. The IC50 in data set [3] stood at 22 nM; on CDK8/Cyclin C [4], 9.3 nM.

Turning to `Cc1ccncc1Oc1sc(C(N)=O)c2c1-c1sncc1CC2`, in data set [1], the EC50 worked out at 16 nM. Further, in data set [2], the microsomal CLint at 1 µM was found to be 65 µL/min/mg. The half-maximal inhibitory concentration (IC50) in data set [3] was 6.6 nM; on CDK8/Cyclin C [4], 4.7 nM.

On to `CS(=O)(=O)c1sc(C(N)=O)c2c1-c1sncc1CC2`, for which the 50% effective concentration (EC50) in data set [1] is 220 nM. Also, the IC50 is 110 nM in data set [3] and 63 nM on CDK8/Cyclin C [4].

Turning to `CC(=O)Nc1ccc(Oc2sc(C(N)=O)c3c2-c2sncc2CC3)cn1`, in data set [5], the concentration in solution (solubility) was 0.72 µg/mL (≈ 1.86 µM). For the same compound, in data set [1], the EC50 amounted to 0.4 nM. Moreover, the microsomal CLint at 1 µM in data set [2] stood at 61 µL/min/mg. Further, the half-inhibitory concentration (IC50) (in data set [3]; at CDK8/Cyclin C [4]) was 0.57 nM in each case.

In the case of `CNc1ccc(Oc2sc(C(N)=O)c3c2-c2sncc2CC3)cn1`, the concentration in solution in data set [5] (solubility) was 4 µg/mL (≈ 11.2 µM). Also, the half-maximal effective concentration (EC50) in data set [1] worked out at 0.58 nM. Further, in data set [2], the microsomal CLint at 1 µM amounted to 127 µL/min/mg. Besides, the IC50 in data set [3] turned out to be 0.36 nM; on CDK8/Cyclin C [4] it was 0.59 nM.

As to `C[S+]([O-])c1sc(C(N)=O)c2c1-c1sncc1CC2` (stereo not given), the half-maximal effective concentration (EC50) in data set [1] was 70 nM. Further, the IC50 in data set [3] stood at 150 nM; at CDK8/Cyclin C [4], 88 nM.

Turning to `Cc1c(Oc2sc(C(N)=O)c3c2-c2sncc2CC3)ccc[n+]1[O-]`, the EC50 in data set [1] was 8.3 nM. Moreover, the half-inhibitory concentration (IC50) in data set [3] came to 9.3 nM; at CDK8/Cyclin C [4], 4.4 nM.

As for `CSc1sc(C#N)c2c1-c1sncc1CC2`, in data set [1], the 50% effective concentration (EC50) came out at 490 nM. The IC50 in data set [3] was 46 nM; at CDK8/Cyclin C [4], 23 nM.

Take `COCCNC(=O)c1ccc(Oc2sc(C(N)=O)c3c2-c2sncc2CC3)c(C)n1`: in data set [5], the concentration in solution (solubility) came to 6.7 µg/mL (≈ 15.1 µM). Also, the 50% effective concentration (EC50) in data set [1] is 0.35 nM. For the same compound, the microsomal CLint at 1 µM in data set [2] turned out to be 71 µL/min/mg. In addition, the values for the half-maximal inhibitory concentration (IC50) (in data set [3]; on CDK8/Cyclin C [4]) were 1.3 nM and 1.4 nM, respectively.

For the compound `CSc1sc(C(=O)O)c2c1-c1sncc1CC2`, the EC50 in data set [1] is more than 10000 nM. Besides, the IC50 is 12 nM in data set [3] and 9.5 nM on CDK8/Cyclin C [4].

With `CSc1sc(C(N)=O)c2c1-c1snnc1CC2`, in data set [1], the concentration giving a half-maximal response (EC50) was 550 nM. For the same compound, the concentration for half-maximal inhibition (IC50) in data set [3] is 130 nM; on CDK8/Cyclin C [4] it was 60 nM.

With `NC(=O)c1ccc(Oc2sc(C(N)=O)c3c2-c2sncc2CC3)cn1`, in data set [5], the solubility came out at 4.1 µg/mL (≈ 11 µM). The concentration giving a half-maximal response (EC50) in data set [1] is 1.4 nM. Also, the microsomal CLint at 1 µM in data set [2] was determined as 19 µL/min/mg. Besides, the values for the half-maximal inhibitory concentration (IC50) (in data set [3]; on CDK8/Cyclin C [4]) were 0.97 nM and 0.93 nM, respectively.

For the compound `CSc1sc(C(=O)N(C)C)c2c1-c1sncc1CC2`, in data set [1], the EC50 amounted to 1700 nM. For the same compound, the half-maximal inhibitory concentration (IC50) in data set [3] was found to be 120 nM; at CDK8/Cyclin C [4], 68 nM.

As to `OC[C@H](Nc1cncc(-c2ccc3[nH]ncc3c2)c1)c1ccccc1`, the IC50 at CDK8/Cyclin C [6] was found to be 0.4 nM.

In data set [5], `CC(C)(O)CNC(=O)c1ccc(Oc2sc(C(N)=O)c3c2-c2sncc2CC3)cn1` gave a solubility of 56 µg/mL (≈ 126 µM). In addition, the concentration giving a half-maximal response (EC50) in data set [1] turned out to be 7.4 nM. Besides, the microsomal CLint at 1 µM in data set [2] turned out to be 21 µL/min/mg. The IC50 (in data set [3]; on CDK8/Cyclin C [4]) was 2.4 nM throughout.

As to `CNC(=O)c1ccc(Oc2sc(C(N)=O)c3c2-c2sncc2CC3)cn1`, the solubility in data set [5] is 11 µg/mL (≈ 28.5 µM). In addition, the concentration for a half-maximal effect (EC50) in data set [1] amounted to 2.6 nM. The microsomal CLint at 1 µM in data set [2] stood at 23 µL/min/mg. For the same compound, the IC50 is 1 nM in data set [3] and 1.9 nM on CDK8/Cyclin C [4].

Compound `Cc1ccc(Oc2sc(C(N)=O)c3c2-c2sncc2CC3)cn1` displayed a solubility in data set [5] of 23 µg/mL (≈ 67 µM). In data set [1], the EC50 is 3 nM. For the same compound, the microsomal CLint at 1 µM in data set [2] was 75 µL/min/mg. In addition, the IC50 worked out at 1.3 nM in data set [3] and 0.99 nM at CDK8/Cyclin C [4].

For the compound `NC(=O)c1sc(Oc2cccnc2)c2c1CCc1cnsc1-2`, in data set [1], the EC50 worked out at 3 nM. Besides, the microsomal CLint at 1 µM in data set [2] came out at 55 µL/min/mg. Besides, the values for the IC50 (in data set [3]; on CDK8/Cyclin C [4]) were 2.7 nM and 1.5 nM, respectively.

Compound `CCOCCNC(=O)c1ccc(Oc2sc(C(N)=O)c3c2-c2sncc2CC3)cn1` came in with a solubility in data set [5] of 15 µg/mL (≈ 33.7 µM). Further, the EC50 in data set [1] turned out to be 1.5 nM. Besides, the microsomal CLint at 1 µM in data set [2] was found to be 73 µL/min/mg. For the same compound, the IC50 worked out at 1.9 nM in data set [3] and 1.1 nM at CDK8/Cyclin C [4].

As for `CSc1sc(C(N)=O)c2c1-c1nn(C)cc1CC2`, in data set [1], the EC50 was more than 10000 nM. The compound also yielded an IC50 at CDK8/Cyclin C [4] of more than 10000 nM.

Consider `CSc1sc(C(=O)Nc2ccccn2)c2c1-c1sncc1CC2`, for which the 50% effective concentration (EC50) in data set [1] turned out to be 2800 nM. The concentration for half-maximal inhibition (IC50) was determined as 400 nM in data set [3] and 180 nM on CDK8/Cyclin C [4].

In the case of `Cc1ncccc1Oc1sc(C(N)=O)c2c1-c1sncc1CC2`, the EC50 in data set [1] turned out to be 2 nM. In data set [2], the microsomal CLint at 1 µM turned out to be 86 µL/min/mg. In addition, the 50% inhibitory concentration (IC50) in data set [3] amounted to 0.77 nM; on CDK8/Cyclin C [4], 0.47 nM.

Regarding `NC(=O)c1[nH]cc(-c2ccncc2)c1Cl`, on CDK8/Cyclin C [6], the half-inhibitory concentration (IC50) is 7 nM.

For `CSc1sc(C(=O)Nc2ccn(C)n2)c2c1-c1sncc1CC2`, the half-maximal effective concentration (EC50) in data set [1] came to 1400 nM. The IC50 turned out to be 65 nM in data set [3] and 22 nM at CDK8/Cyclin C [4].

Compound `NC(=O)c1sc(Oc2ccc(N)nc2)c2c1CCc1cnsc1-2` returned a solubility in data set [5] of 4.5 µg/mL (≈ 13.1 µM). Further, the EC50 in data set [1] was determined as 2.3 nM. For the same compound, in data set [2], the microsomal CLint at 1 µM was 30 µL/min/mg. Further, the figures for the IC50 (in data set [3]; at CDK8/Cyclin C [4]) were 1.1 nM and 0.6 nM, respectively.

A word on the EC50: it is the concentration needed to bring the measured effect to its halfway point. One may read the IC50 as the point on the concentration scale where inhibition reaches its midpoint. As a reminder, the solubility is how much of the substance goes into solution per volume. A lower solubility goes with a poorly soluble substance.
